Measured values from publication PMC11864979, “First-in-class ultralong-target-residence-time p38α inhibitors as a mitosis-targeted therapy for colorectal cancer” (Nature Cancer, 2025).
Where “and” joins values, the source holds several entries; their conditions need not be identical. Identical values can stand only once.

Tests used:
[1] = cell viability in healthy human colon organoids SCC321; format: cell-based; conditions: male, human, replicates
Protocol: (§1) Primary tumor material was chopped, washed in ice-cold medium and transferred into basic medium (Supplementary Table 17), supplemented with 2.5 mg ml^−1 collagenase II (Thermo Fisher Scientific), 2.5 mg ml^−1 collagenase XI (Sigma-Aldrich), 1 mg ml^−1 Dispase II (Sigma-Aldrich), 100 µg ml^−1 DNase I and 10.5 µM Y-27632 dihydrochloride (Invitrogen). Tumor digestion was performed at 37 °C and stopped by adding medium containing 10% FBS. The mixture was centrifuged for 5 min at 300g. Red blood cells were removed with ACK lysing buffer (Thermo Fisher Scientific; 5 min at room temperature) and the pellet was resuspended in medium. Approximately 1,000 cells were resuspended and plated in 50 µl of Cultrex RGF BME, type 2 (R&D Systems). The ascites material was pelleted by centrifugation at 300g and washed three times with ice-cold PBS. Human CRC organoids were cultured in human CRC medium (Supplementary Table 17) at 37 °C and 7% CO2. Within the first week, the medium was supplemented with 10.5 µM Y-27632 dihydrochloride (Invitrogen). The human colon organoids (SCC311 and SCC321) were purchased from Sigma-Aldrich and cultured in human colon medium (Supplementary Table 17) at 37 °C and 7% CO2. They were derived from participants with the following sex and age: […].
(§2) For in vitro treatment studies, organoids were mechanically dissociated and digested using TrypLE supplemented with 100 µg ml^−1 DNaseI and 10.5 µM Y-27632 dihydrochloride (Invitrogen) at 37 °C. A total of 1,000–2,000 single cells were plated per well in white 96-well plates (Greiner) in culture medium containing 10% GFR Matrigel or Cultrex BME. The treatment with doxycycline (5 µg ml^−1), pharmacological inhibitors or corresponding volumes of DMSO was started 24 h after plating. Doxycycline was obtained from Sigma-Aldrich. […] Cell viability was measured by means of CellTiter-Glo 3D or CellTiter-Glo 2.0 reagent (Promega) according to the manufacturers’ instructions and the Infinite M Plex reader (Tecan, i-control version 3.9.1 software). Results were normalized to vehicle (DMSO) or to shNC. For cell-doubling assays, the cell number was quantified at the corresponding time points using Guava EasyCyte flow cytometer (Luminex, CytoSoft v5.2 software).

[2] = test system: SCC321 human colon organoids; assay: as above; format: cell-based; conditions: for Cell viability (%): ED Fig. 10g, replicates
Protocol: as §1, §2

340 wild-type kinases [3] = molecular target: T1, 340 wild-type kinases (Homo sapiens, UniProt O43318); assay: selectivity profiling in a panel of 340 wild-type kinases (Reaction Biology Europe); format: binding; conditions: MAP3K7/MAP3K7IP1; 0.2 µM; read-out: residual activity
T1 construct: purchased Reaction Biology Europe
T1 sequence (O43318 1-606): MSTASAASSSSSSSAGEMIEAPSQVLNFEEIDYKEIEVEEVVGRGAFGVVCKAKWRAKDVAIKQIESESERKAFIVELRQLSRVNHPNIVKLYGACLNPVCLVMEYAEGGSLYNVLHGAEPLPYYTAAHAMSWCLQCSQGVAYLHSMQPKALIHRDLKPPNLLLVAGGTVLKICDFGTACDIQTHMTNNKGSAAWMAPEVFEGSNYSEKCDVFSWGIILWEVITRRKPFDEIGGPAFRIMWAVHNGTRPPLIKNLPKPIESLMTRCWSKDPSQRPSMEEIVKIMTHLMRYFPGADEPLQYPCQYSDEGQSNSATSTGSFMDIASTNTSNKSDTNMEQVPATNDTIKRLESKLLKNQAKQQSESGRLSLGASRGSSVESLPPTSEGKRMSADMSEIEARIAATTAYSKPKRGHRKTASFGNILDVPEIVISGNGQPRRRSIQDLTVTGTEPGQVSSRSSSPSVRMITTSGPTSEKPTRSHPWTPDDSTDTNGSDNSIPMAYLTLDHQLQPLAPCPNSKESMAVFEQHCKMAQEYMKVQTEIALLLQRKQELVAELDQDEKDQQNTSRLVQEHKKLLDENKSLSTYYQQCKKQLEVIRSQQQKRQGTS
Source text: (§3) Potential interactions between 2015 and 340 wild-type kinases were checked by means of a competition binding assay performed by Reaction Biology Europe (Supplementary Table 15).

340 wild-type kinases [4] = molecular target: T2, 340 wild-type kinases (Homo sapiens, UniProt Q9HAZ1); assay: as above; format: binding; conditions: 1 µM 2015; read-out: CLK4 residual activity
T2 construct: purchased Reaction Biology Europe
T2 sequence (Q9HAZ1 whole entry): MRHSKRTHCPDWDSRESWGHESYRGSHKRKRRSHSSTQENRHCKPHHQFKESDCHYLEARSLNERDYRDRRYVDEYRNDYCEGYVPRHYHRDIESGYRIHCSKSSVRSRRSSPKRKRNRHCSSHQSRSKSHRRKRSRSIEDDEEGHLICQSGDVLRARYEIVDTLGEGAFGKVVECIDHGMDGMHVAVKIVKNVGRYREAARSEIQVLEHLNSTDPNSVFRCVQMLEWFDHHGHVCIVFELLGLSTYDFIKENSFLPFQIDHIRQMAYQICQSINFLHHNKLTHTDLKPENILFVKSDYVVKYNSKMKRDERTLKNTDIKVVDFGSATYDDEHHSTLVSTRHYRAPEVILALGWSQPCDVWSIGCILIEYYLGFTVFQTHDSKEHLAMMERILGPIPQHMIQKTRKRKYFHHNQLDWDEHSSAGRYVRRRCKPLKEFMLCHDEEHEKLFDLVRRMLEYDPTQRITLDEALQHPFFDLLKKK
Source text: as §3

340 wild-type kinases [5] = molecular target: T3, 340 wild-type kinases (Homo sapiens, UniProt P36896); assay: as above; format: binding; conditions: 1 µM 2015; read-out: ACVR1B residual activity
T3 construct: purchased Reaction Biology Europe
T3 sequence (P36896 24-505): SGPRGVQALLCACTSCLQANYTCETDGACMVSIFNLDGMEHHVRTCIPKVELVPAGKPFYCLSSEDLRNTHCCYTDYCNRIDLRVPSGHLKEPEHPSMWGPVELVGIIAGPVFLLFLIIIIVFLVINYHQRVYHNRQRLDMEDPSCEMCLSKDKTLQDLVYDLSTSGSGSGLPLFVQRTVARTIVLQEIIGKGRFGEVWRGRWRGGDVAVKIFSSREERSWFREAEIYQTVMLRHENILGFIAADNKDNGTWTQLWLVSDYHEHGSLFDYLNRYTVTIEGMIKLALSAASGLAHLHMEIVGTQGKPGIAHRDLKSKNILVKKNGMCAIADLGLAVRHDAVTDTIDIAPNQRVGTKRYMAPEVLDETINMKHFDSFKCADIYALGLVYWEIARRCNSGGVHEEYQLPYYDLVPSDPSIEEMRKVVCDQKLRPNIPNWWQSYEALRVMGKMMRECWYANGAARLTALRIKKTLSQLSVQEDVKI
Source text: as §3

340 wild-type kinases [6] = molecular target: T4, 340 wild-type kinases (Homo sapiens, UniProt Q8TDX7); assay: as above; format: binding; conditions: NEK7; 1 µM; read-out: residual activity
T4 construct: purchased Reaction Biology Europe
T4 sequence (Q8TDX7 whole entry): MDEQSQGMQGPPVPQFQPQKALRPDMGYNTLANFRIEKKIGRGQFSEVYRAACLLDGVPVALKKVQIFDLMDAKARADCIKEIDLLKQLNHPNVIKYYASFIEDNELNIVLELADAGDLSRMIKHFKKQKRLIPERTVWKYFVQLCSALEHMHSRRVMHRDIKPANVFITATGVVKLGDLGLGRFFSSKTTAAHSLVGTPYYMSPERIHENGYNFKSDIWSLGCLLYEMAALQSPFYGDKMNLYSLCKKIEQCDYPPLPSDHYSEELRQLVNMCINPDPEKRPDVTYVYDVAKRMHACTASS
Source text: as §3

340 wild-type kinases [7] = molecular target: T5, 340 wild-type kinases (Homo sapiens, UniProt Q00537); assay: as above; format: binding; conditions: CDK17/p35NCK; 0.2 µM; read-out: residual activity
T5 construct: purchased Reaction Biology Europe
T5 sequence (Q00537 whole entry): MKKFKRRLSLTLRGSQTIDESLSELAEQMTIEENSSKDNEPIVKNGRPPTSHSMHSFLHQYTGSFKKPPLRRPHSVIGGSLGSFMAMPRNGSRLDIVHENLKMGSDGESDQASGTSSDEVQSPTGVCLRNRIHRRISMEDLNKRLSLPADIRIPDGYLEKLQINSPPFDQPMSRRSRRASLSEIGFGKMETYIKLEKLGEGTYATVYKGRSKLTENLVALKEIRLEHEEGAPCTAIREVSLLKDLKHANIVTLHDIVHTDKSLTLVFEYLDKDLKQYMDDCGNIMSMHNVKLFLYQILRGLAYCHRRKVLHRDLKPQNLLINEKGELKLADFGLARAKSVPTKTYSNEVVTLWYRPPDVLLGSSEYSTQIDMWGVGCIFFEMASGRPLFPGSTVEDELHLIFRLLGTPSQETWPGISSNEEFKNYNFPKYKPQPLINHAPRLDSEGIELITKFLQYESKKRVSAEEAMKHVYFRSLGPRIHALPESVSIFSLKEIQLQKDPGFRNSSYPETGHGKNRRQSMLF
Source text: as §3

340 wild-type kinases [8] = molecular target: T6, 340 wild-type kinases (Homo sapiens, UniProt P27361); assay: as above; format: binding; conditions: 0.2 µM 2015; read-out: ERK1 residual activity
T6 construct: purchased Reaction Biology Europe
T6 sequence (P27361 whole entry): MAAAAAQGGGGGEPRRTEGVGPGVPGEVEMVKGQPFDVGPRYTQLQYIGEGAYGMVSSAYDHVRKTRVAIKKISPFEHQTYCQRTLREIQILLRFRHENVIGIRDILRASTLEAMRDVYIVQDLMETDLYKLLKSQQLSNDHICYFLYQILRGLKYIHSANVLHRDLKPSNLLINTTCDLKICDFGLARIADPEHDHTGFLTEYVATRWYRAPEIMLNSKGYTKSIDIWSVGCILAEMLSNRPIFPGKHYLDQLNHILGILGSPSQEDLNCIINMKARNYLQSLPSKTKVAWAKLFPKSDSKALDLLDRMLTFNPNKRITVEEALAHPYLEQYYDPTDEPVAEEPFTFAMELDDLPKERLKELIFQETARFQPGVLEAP
Source text: as §3

[9] = histological evaluation of small intestine, colon and liver of treated mice; format: in vivo, mouse
Protocol: Histopathological evaluation of colorectal tumors and healthy tissues was performed by experienced pathologists (S.S. for murine or human tumors and tissues; G.O. for human tumors). Hematoxylin and eosin (H&E) staining was performed on paraffin-embedded sections using 0.5% eosin and 0.5% hematoxylin.

## CNC(=O)c1ccc2c(c1)C(=O)c1ccc(Nc3ccc(F)c(NC(=O)C4CC4)c3)cc1CC2 [Compound 2015]
[1]; healthy human colon organoids SCC321, 2015 0,25 µM, ED Fig. 10g
  viability at 25 µM: 105%
[1]; healthy human colon organoids SCC321, 2015 0, ED Fig. 10g
  viability at 5 µM: 109%
[1]; healthy human colon organoids SCC321, 2015 1 µM, ED Fig. 10g
  viability at 1 µM: 86.9%
[2]; 2015 0,5 µM, 5 µM
  Cell viability (%): 115.51% and 112.50%
[2]; 2015 0,25 µM, 25 µM
  Cell viability (%): 100.29% and 98.19%
[2]; 2015 1 µM
  Cell viability (%): 83.04% and 75.31%
[2]; SCC321, 4 d
  response of healthy human colon culture (in words): only a very weak response
340 wild-type kinases [3]
  remaining activity at 0.2 µM: 96.8%
340 wild-type kinases [4]
  remaining activity at 1 µM: 118%
340 wild-type kinases [5]
  remaining activity at 1 µM: 86.1%
340 wild-type kinases [6]
  remaining activity at 1 µM: 110%
340 wild-type kinases [7]
  remaining activity at 0.2 µM: 94.8%
340 wild-type kinases [8]
  remaining activity at 0.2 µM: 108%
[9]; 4 days or 10 weeks daily treatment
  intestinal epithelium (in words): did not influence the regeneration of intestinal epithelium
[9]; short-term and long-term treatment
  liver damage (in words): no signs for liver damage
